# From US20080076801A1, “Indolylalkylpyridin-2-amines for the inhibition of beta-secretase” (Wyeth, priority 2006, published 2008)
# Key:
# human BACE1 = human BACE1 (Homo sapiens, UniProt P56817); assay: BACE1 fluorescent kinetic assay (cleavage of peptide substrate WABC-6); type: biochemical; conditions: 5 μM inhibitor; 10 nM enzyme, 25 μM substrate, pH 4.5, room temperature; read-out: BACE-1 % Inhibition at 5 μM
# Experimental: Evaluation of BACE1 Binding Affinity of Test Compounds
# Fluorescent Kinetic Assays
# Final Assay Conditions: 10 nM human BACE1 (or 10 nM Murine BACE1, 1.5 nM human BACE2), 25 μM substrate (WABC-6, MW 1549.6, from AnaSpec), Buffer: 50 mM Na-Acetate, pH 4.5, 0.05% CHAPS, 25% PBS, room temperature. Na-Acetate was from Aldrich, Cat.# 24, 124-5, CHAPS was from Research Organics, Cat. # 1304C 1×, PBS was from Mediatech (Cellgro), Cat# 21-031-CV, peptide substrate AbzSEVNLDAEFRDpa was from AnaSpec, Peptide Name: WABC-6
# Determination of stock substrate (AbzSEVNLDAEFRDpa) concentration: ˜25 mM stock solution is made in DMSO using the peptide weight and MW, and diluted to ˜25 μM (1:1000) in 1×PBS. Concentration is determined by absorbance at 354 nm using an extinction coefficient ε of 18172 M^−1cm^−1, the concentration of stock substrate is corrected, and the substrate stock stored in small aliquots in −80° C. [Substrate Stock]=ABS^354 nm*10^6/18172 (in […]) The extinction coefficient ε^354 nm was adapted from TACE peptide substrate, which had the same quencher-fluorophore pair. Determination of Stock Enzyme Concentration: the stock concentration of each enzyme is determined by absorbance at 280 nm using an ε of 64150 M^−1cm^−1 for hBACE1 and MuBACE1, 62870 M^−1cm^−1 for hBACE2 in 6 M Guanidinium Hydrochloride (from Research Organics, Cat. # 5134G-2), pH ˜6. The extinction coefficient ε^280 nm for each enzyme was calculated based on known amino acid composition and published extinction coefficients for Trp ([…]) and Tyr ([…]) residues (Anal. Biochem. 182, 319-326). Dilution and mixing steps: total reaction volume: 100 μL
# 2× inhibitor dilutions in buffer A (66.7 mM Na-Acetate, pH 4.5, 0.0667% CHAPS) were prepared,
# 4× enzyme dilution in buffer A (66.7 mM Na-Acetate, pH 4.5, 0.0667% CHAPS) were prepared,
# 100 μM substrate dilution in 1×PBS was prepared, and
# 50 μL 2× Inhibitor, 25 μL 100 μM substrate are added to each well of 96-well plate (from DYNEX Technologies, VWR #: 11311-046), immediately followed by 25 μL 4× enzyme (added to the inhibitor and substrate mix), and the fluorescence readings are initiated.
# Fluorescence Readings: Readings at λex 320 nm and λem 420 nm are taken every 40 sec for 30 min at room temperature and the linear slope for substrate cleavage rate (vi) determined.
# Calculation of % Inhibition: % Inhibition=100*(1−vi/v0) vi: substrate cleavage rate in the presence of inhibitor v0: substrate cleavage rate in the absence of inhibitor IC50 Determination: % Inhibition=((B*IC50^n)+(100*I0^n))/(IC50^n+I0^n) (Model # 39 from LSW Tool Bar in Excel where B is the % inhibition from the enzyme control, which should be close to 0.) % Inhibition is plotted vs. Inhibitor Concentration (I0) and the data fit to the above equation to obtain IC50 value and Hill number (n) for each compound. Testing at least 10 different inhibitor concentrations is preferred.
# Sequence of human BACE1 (P56817 46-501): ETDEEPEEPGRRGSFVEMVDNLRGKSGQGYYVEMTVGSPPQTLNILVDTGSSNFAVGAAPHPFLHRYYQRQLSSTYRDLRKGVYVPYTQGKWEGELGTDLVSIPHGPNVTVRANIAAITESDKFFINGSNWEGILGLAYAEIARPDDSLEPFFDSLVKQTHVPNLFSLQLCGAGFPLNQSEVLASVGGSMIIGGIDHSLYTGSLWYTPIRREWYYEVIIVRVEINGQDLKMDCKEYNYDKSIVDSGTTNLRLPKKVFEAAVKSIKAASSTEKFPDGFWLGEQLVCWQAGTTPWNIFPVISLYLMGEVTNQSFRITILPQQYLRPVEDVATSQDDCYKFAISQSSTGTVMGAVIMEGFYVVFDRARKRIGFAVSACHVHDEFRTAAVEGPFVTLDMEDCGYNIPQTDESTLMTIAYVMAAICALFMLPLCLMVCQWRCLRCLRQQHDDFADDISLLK
compound,measurement,setting,value
"Nc1cccc(Cn2c(-c3ccccc3Cl)cc3ccc(C#CCCF)cc32)n1 [Example 21, 6-{[6-(4-fluorobutyn-1-yl)-2-(2-chlorophenyl)-1H-indol-1-yl]methyl}pyridin-2-amine]",inhibition at 5 µM,human BACE1,56.6%
"CCCOc1ccc2cc(-c3ccccc3Cl)n(Cc3cccc(N)n3)c2c1 [Example 15, 6-{[2-(2-chlorophenyl)-6-propoxy-1H-indol-1-yl]methyl}pyridin-2-amine]",melting point,,128 to 130 °C
same,inhibition at 5 µM,human BACE1,38.6%
"COc1ccc2cc(-c3ccccc3Cl)n(Cc3cccc(N)n3)c2c1 [Example 16, 6-{[2-(2-chlorophenyl)-6-methoxy-1H-indol-1-yl]methyl}pyridin-2-amine]",melting point,,174 to 176 °C
same,inhibition at 5 µM,human BACE1,30.1%
"COCCCC#Cc1ccc2cc(-c3ccccc3Cl)n(Cc3cccc(N)n3)c2c1 [Example 28, 6-{[2-(2-Chlorophenyl)-6-(5-methoxypent-1-yn-1-yl)-1H-indol-1-yl]methyl}pyridin-2-amine]",inhibition at 5 µM,human BACE1,53%
"Nc1cccc(Cn2c(-c3ccccc3Cl)cc3ccc(OCc4cccc(F)c4)cc32)n1 [Example 11, 6-({2-(2-chlorophenyl)-6-[(3-fluorobenzyl)oxy]-1H-indol-1-yl}methyl)pyridin-2-amine]",melting point,,60 to 64 °C
same,inhibition at 5 µM,human BACE1,49.5%
"Nc1cccc(Cn2c(-c3ccccc3Cl)cc3ccc(OCc4ccccc4)cc32)n1 [Example 9, 6-{[6-(benzyloxy)-2-(2-chlorophenyl)-1H-indol-1-yl]methyl}pyridin-2-amine]",melting point,,64 to 66 °C
same,inhibition at 5 µM,human BACE1,31.6%
"Nc1cccc(Cn2c(-c3ccccc3Cl)cc3ccc(OCc4cc(F)ccc4F)cc32)n1 [Example 12, 6-({2-(2-chlorophenyl)-6-[(2,5-difluorobenzyl)oxy]-1H-indol-1-yl}methyl)pyridin-2-amine]",melting point,,65 to 68 °C
same,inhibition at 5 µM,human BACE1,33.2%
"COc1cccc(COc2ccc3cc(-c4ccccc4Cl)n(Cc4cccc(N)n4)c3c2)c1 [Example 14, 6-({2-(2-chlorophenyl)-6-[(3-methoxybenzyl)oxy]-1H-indol-1-yl}methyl)pyridin-2-amine]",melting point,,67 to 69 °C
same,inhibition at 5 µM,human BACE1,36.3%
"Nc1cccc(Cn2c(-c3ccccc3Cl)cc3ccc(C#CCCCCO)cc32)n1 [Example 23, 6-{1-[(6-Aminopyridin-2-yl)methyl]-2-(2-chlorophenyl)-1H-indol-6-yl}hex-5-yn-1-ol]",inhibition at 5 µM,human BACE1,81.1%
"Nc1cccc(Cn2c(-c3ccccc3Cl)cc3ccc(Br)cc32)n1 [Example 19, 6-{[6-Bromo-2-(2-chlorophenyl)-1H-indol-1-yl]methyl}pyridin-2-amine]",melting point,,189 to 191 °C
same,inhibition at 5 µM,human BACE1,31.7%
"N#Cc1cccc(COc2ccc3cc(-c4ccccc4Cl)n(Cc4cccc(N)n4)c3c2)c1 [Example 10, 3-({[1-[(6-aminopyridin-2-yl)methyl]-2-(2-chlorophenyl)-1H-indol-6-yl]oxy}methyl)benzonitrile]",melting point,,65 to 67 °C
same,inhibition at 5 µM,human BACE1,58%
"Nc1cccc(Cn2c(-c3ccccc3Cl)cc3ccc(Oc4cncnc4)cc32)n1 [Example 17, 6-{[2-(2-chlorophenyl)-6-(pyrimidin-5-yloxy)-1H-indol-1-yl]methyl}pyridin-2-amine]",melting point,,115 to 117 °C
same,inhibition at 5 µM,human BACE1,39.8%
"Nc1cccc(Cn2c(-c3ccccc3Cl)cc3ccc(C#CCCCCF)cc32)n1 [Example 32, 6-{[2-(2-chlorophenyl)-6-(6-fluorohex-1-yn-1-yl)-1H-indol-1-yl]methyl}pyridin-2-amine]",inhibition at 5 µM,human BACE1,53.4%
"Nc1cccc(Cn2c(-c3ccccc3Cl)cc3ccc(CCCCCO)cc32)n1 [Example 25, 5-[1-(6-Aminopyridin-2-ylmethyl)-2-(2-chlorophenyl)-1H-indol-6-yl]pentan-1-ol]",inhibition at 5 µM,human BACE1,77.3%
"Nc1cccc(Cn2c(-c3ccccc3Cl)cc3ccc(C#CCCO)cc32)n1 [Example 20, 4-{1-[(6-Aminopyridin-2-yl)methyl]-2-(2-chlorophenyl)-1H-indol-6-yl}but-3-yn-1-ol]",inhibition at 5 µM,human BACE1,67.5%
Nc1cccc(Cn2c(-c3ccccc3)cc3ccccc32)n1 [Example 30],melting point,,45 to 47 °C
same,inhibition at 5 µM,human BACE1,24.6%
"Nc1cccc(Cn2c(-c3ccccc3Cl)cc3ccc(CCCCCCO)cc32)n1 [Example 26, 6-[1-(6-Aminopyridin-2-ylmethyl)-2-(2-chlorophenyl)-1H-indol-6-yl]hexan-1-ol]",inhibition at 5 µM,human BACE1,107%
"Nc1cccc(Cn2c(-c3ccccc3Cl)cc3ccc(OCc4cccc(C(F)(F)F)c4)cc32)n1 [Example 13, 6-[(2-(2-chlorophenyl)-6-{[3-(trifluoromethyl)benzyl]oxy}-1H-indol-1-yl)methyl]pyridin-2-amine]",melting point,,60 to 62 °C
same,inhibition at 5 µM,human BACE1,13.8%
"Nc1cccc(Cn2c(-c3ccccc3Cl)cc3ccc(C#CCCCO)cc32)n1 [Example 22, 5-{1-[(6-Aminopyridin-2-yl)methyl]-2-(2-chlorophenyl)-1H-indol-6-yl}pent-4-yn-1-ol]",inhibition at 5 µM,human BACE1,71.2%
"Nc1cccc(Cn2c(-c3ccccc3Cl)cc3ccc(CCCCO)cc32)n1 [Example 24, 4-[1-(6-Aminopyridin-2-ylmethyl)-2-(2-chlorophenyl)-1H-indol-6-yl]butan-1-ol]",inhibition at 5 µM,human BACE1,71.8%
"COCCC#Cc1ccc2cc(-c3ccccc3Cl)n(Cc3cccc(N)n3)c2c1 [Example 27, 6-{[2-(2-Chlorophenyl)-6-(4-methoxybut-1-yn-1-yl)-1H-indol-1-yl]methyl}pyridin-2-amine]",inhibition at 5 µM,human BACE1,51%
"Nc1cccc(Cn2c(-c3ccccc3Cl)cc3ccc(C#CCCCF)cc32)n1 [Example 31, 6-{[2-(2-chlorophenyl)-6-(5-fluoropent-1-yn-1-yl)-1H-indol-1-yl]methyl}pyridin-2-amine]",inhibition at 5 µM,human BACE1,64.6%
"N#CCCCOc1ccc2cc(-c3ccccc3Cl)n(Cc3cccc(N)n3)c2c1 [Example 8, 4-{[1-[(6-aminopyridin-2-yl)methyl]-2-(2-chlorophenyl)-1H-indol-6-yl]oxy}butanenitrile]",inhibition at 5 µM,human BACE1,79%
